Laboratory results published in patent EP0337441A2, “Expression of a functional form of a herpes virus DNA polymerase in yeast” (E.R. Squibb & Sons, Inc., priority 1988, dated 1989).
Like-named read-outs stand apart in the source and are kept apart here.

Experiments:
HSV-1 DNA pol [1] = target: T1, HSV-1 DNA pol (Human herpesvirus 1, UniProt P04292); test: HSV DNA pol assay (high salt, 100 mM ammonium sulfate), 3H-TTP incorporation into nicked calf thymus DNA by cell extracts; type: biochemical; design: made in house; host or cells: Saccharomyces cerevisiae Y294 carrying pMH202 (strain Y-MH202), galactose-induced, crude cell lysate; conditions: HSV pol assay conditions
Procedure: In order to determine whether HSV pol protein was expressed and whether HSV specific DNA polymerase activity could be detected in yeast cells containing pMH202, the following experiments were performed. This description represents only one example of how such a strain can be constructed. Other examples may include a different yeast host strain and/or a different transformation procedure. Yeast cells (Y 294) were transformed with pMH101 (control plasmid without the HSV pol gene) or pMH202 (expression plasmid with HSV pol gene) DNAs. Transformation of the yeast cells was accomplished using the method of J. D. Beggs (1978. Nature 275: 104 - 109). The transformants were selected for uracil prototrophy by growth on minimal media containing 182.2 g/L sorbitol; 20 g/L glucose; 6.7 g/L yeast nitrogen base (Difco) supplemented with 30µg/ml leucine, 20µg/ml histidine, 20µg/ml tryptophan and 2% glucose but lacking uracil. One colony of each type (designated Y-MH101 or Y-MH202, respectively) was selected at random for further analysis. 100 ml overnight cultures were grown from these two strains in minimal media (0.7% yeast nitrogen base [Difco]) containing the required amino acids as described above and 2% raffinose. […] The extent of lysis was monitored by microscopy. […]
(§1) The lysates were also analyzed for DNA polymerase enzyme activity. […]

HSV-1 DNA pol [2] = target: T1, HSV-1 DNA pol; test: as above; type: biochemical; conditions: for high salt activity in the Y-MH202 yeast cell extracts (result in words): Y-MH202 extract, 23 µM ACVTP, 5.3 µM aphidicolin
Procedure: (§2) In order to determine whether HSV pol protein was expressed and whether HSV specific DNA polymerase activity could be detected in yeast cells containing pMH202, the following experiments were performed. This description represents only one example of how such a strain can be constructed. Other examples may include a different yeast host strain and/or a different transformation procedure. Yeast cells (Y 294) were transformed with pMH101 (control plasmid without the HSV pol gene) or pMH202 (expression plasmid with HSV pol gene) DNAs. Transformation of the yeast cells was accomplished using the method of J. D. Beggs (1978. Nature 275: 104 - 109). The transformants were selected for uracil prototrophy by growth on minimal media containing 182.2 g/L sorbitol; 20 g/L glucose; 6.7 g/L yeast nitrogen base (Difco) supplemented with 30µg/ml leucine, 20µg/ml histidine, 20µg/ml tryptophan and 2% glucose but lacking uracil. One colony of each type (designated Y-MH101 or Y-MH202, respectively) was selected at random for further analysis. 100 ml overnight cultures were grown from these two strains in minimal media (0.7% yeast nitrogen base [Difco]) containing the required amino acids as described above and 2% raffinose. The following day, cultures were divided in half, cells were pelleted, resuspended in 100 ml of fresh media containing either 2% raffinose or 2% galactose and again grown overnight. The following day, the four cultures were pelleted at 4°C. Cell lysates were prepared as described by Johnson et al. (1985 . Cell 43:369 - 377). This represents only one example of how such a lysate may be prepared. Cell pellets were resuspended in 1 ml 50 mM Tris-HCl, pH 8.0; 50mM NaCl, 1% dimethylsulfoxide; 10% glycerol; 5mM beta-mercaptoethanol; 10mM EDTA; 2mM benzamidine; and 1mM phenylmethylsulfonylfluoride (PMSF). Lysis was achieved by vortexing the cells 15 - 20 times for 1 minute in the presence of an equal volume of acid-washed glass beads. The extent of lysis was monitored by microscopy. The lysed extracts were transferred to 1.5 ml microfuge tubes and centrifuged for 10 minutes at 12,000 x g. Extracts were stored at -80°C in 15% glycerol until use. The final protein concentration of each of the extracts was between 5 - 6 mg/ml.
Infected cell extracts were prepared essentially as described by Karkas et al. (1986. J. Med. Chem. 29:842 - 848). HeLa S3 cells were infected with HSV-1 KOS at a multiplicity of infection of 10 plaque forming units per cell and harvested at 16 hours post infection. […]
as §1

yeast alpha DNA pol = yeast alpha DNA pol (Saccharomyces cerevisiae, UniProt P13382); test: Yeast DNA polymerase (alpha pol) assay (low salt), 3H-TTP incorporation by yeast cell extracts; type: biochemical, Saccharomyces cerevesiae; conditions: for low salt DNA pol activity, sensitivity to drug (result in words): all of the extracts tested (also HSV-infected HeLa extract), at the concentration tested; for inhibition at 5.3 µM: aphidicolin 5.3 µM
Procedure: as §2
The lysates were also analyzed for DNA polymerase enzyme activity. Each of the four yeast cell extracts was assayed for DNA pol activity under two sets of conditions. The yeast DNA pol assay conditions were designed to detect the alpha polymerase which should be present in all lysates. The HSV DNA pol assay conditions were chosen to detect HSV specific DNA pol activity which is enhanced by high salt (100mM ammonium sulfate). In contrast, the yeast alpha DNA pol is inhibited under these salt conditions. The assay for yeast DNA polymerase was performed essentially as described in Celniker and Campbell (1982. Cell 31:201 - 213), but without addition of ribonucleotide triphosphates. Reaction mixtures contained 5µl of enzyme extract (25 - 30 µg of protein) in 10mM Tris-HCl, pH 7.5; 10 mM MgCl₂; 10 mM (NH₄)₂SO₄; 0.1 mM DTT; 100 µM each of dATP, dCTP, dGTP; 100 µM ³H-TTP (10 cpm/pmol); 40 µg/ml nicked calf thymus DNA; and 2 mM spermidine in a final volume of 50 µl. The assay for the HSV-1 DNA pol was performed as follows. […] The filters were washed thoroughly, twice using 1N HCl and once using 95% ethanol; air dried and quantitated by scintillation counting using a LKB 1214 Rackbeta counter at 63% efficiency. […]

Chain of yeast alpha DNA pol (P13382 2-1468): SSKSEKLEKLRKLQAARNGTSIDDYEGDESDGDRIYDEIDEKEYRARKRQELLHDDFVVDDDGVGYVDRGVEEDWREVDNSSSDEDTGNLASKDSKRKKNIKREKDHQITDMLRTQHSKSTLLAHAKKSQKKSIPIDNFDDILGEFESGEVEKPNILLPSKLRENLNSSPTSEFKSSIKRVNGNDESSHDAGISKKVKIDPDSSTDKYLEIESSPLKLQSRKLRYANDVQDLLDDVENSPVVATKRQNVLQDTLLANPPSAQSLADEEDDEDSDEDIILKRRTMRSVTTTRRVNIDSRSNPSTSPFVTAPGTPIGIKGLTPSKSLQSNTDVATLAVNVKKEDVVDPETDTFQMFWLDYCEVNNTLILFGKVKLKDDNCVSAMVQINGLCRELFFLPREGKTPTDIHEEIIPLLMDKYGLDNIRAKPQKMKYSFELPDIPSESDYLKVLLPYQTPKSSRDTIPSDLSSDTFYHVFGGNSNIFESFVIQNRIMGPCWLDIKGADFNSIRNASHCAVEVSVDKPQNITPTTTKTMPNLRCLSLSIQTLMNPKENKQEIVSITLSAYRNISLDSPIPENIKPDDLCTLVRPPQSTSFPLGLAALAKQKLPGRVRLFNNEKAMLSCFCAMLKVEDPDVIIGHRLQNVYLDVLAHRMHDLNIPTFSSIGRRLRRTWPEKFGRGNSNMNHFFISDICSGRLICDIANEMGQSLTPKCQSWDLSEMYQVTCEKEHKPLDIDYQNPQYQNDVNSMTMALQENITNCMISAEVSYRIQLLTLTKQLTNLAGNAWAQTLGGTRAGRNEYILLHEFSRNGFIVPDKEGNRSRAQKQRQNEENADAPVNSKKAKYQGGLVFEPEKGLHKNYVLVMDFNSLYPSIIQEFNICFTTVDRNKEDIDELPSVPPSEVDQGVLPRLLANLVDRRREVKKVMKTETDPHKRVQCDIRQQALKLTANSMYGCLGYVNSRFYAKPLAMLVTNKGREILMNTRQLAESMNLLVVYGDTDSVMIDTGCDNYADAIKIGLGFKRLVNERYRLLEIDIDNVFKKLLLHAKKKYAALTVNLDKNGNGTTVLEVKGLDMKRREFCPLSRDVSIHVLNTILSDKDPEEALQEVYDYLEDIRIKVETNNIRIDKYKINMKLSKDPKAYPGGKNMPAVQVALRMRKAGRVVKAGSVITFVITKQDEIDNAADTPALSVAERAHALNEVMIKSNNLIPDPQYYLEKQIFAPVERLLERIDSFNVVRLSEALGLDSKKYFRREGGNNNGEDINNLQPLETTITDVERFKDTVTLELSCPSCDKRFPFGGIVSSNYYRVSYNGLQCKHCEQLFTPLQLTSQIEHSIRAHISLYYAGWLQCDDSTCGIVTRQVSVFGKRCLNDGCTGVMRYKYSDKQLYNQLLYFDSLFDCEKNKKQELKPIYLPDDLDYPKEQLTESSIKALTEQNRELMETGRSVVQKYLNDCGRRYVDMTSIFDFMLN
T1 sequence (P04292 whole entry): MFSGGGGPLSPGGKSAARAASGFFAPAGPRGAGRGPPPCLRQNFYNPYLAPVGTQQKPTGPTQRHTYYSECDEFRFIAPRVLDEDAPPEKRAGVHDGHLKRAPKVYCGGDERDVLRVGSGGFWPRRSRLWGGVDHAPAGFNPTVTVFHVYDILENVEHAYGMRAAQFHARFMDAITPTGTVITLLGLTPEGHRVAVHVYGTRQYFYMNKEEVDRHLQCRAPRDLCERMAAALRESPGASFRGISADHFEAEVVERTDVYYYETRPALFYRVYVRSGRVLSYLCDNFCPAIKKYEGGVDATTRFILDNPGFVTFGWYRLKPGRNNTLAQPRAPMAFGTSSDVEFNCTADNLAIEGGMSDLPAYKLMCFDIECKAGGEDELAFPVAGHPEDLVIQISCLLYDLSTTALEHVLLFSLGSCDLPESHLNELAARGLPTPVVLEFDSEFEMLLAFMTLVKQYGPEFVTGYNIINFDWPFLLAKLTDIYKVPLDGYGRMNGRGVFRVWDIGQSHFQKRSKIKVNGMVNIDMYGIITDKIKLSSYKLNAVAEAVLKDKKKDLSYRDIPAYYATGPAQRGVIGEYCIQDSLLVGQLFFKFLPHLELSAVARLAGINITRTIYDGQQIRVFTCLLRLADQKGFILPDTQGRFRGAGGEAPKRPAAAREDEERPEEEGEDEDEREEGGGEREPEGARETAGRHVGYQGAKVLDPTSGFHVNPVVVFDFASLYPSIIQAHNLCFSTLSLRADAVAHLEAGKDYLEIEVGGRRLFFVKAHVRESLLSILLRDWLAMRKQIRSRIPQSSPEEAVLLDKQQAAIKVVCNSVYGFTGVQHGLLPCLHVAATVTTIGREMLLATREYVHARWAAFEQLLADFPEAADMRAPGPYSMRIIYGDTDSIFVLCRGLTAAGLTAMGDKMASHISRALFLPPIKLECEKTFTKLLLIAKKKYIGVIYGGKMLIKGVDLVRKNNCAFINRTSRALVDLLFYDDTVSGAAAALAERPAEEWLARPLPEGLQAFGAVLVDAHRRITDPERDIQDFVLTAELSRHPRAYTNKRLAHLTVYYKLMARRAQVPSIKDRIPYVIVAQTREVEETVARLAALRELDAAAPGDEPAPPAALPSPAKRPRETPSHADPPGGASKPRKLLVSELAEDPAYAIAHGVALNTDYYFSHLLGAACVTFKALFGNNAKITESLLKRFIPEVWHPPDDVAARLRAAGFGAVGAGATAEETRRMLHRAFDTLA

Nc1nc2c(ncn2COCCOP(=O)(O)OP(=O)(O)OP(=O)(O)O)c(=O)[nH]1 [ACVTP, acyclovir triphosphate]
inhibition at 23 µM (HSV-1 DNA pol [1]; HSV-infected HeLa cells extract, ACVTP 23 µM, read-out: % Inhibition by Drug ACVTP): 89% | high salt activity in the Y-MH202 yeast cell extracts (result in words) (HSV-1 DNA pol [2]): inhibited | inhibition at 23 µM (HSV-1 DNA pol [2]; Yeast Expressor (Y-MH202, galactose) extract, HSV pol assay conditions, ACVTP 23 µM, read-out: % Inhibition by Drug ACVTP): 93% | inhibition at 23 µM (yeast alpha DNA pol; Yeast Control (Y-MH101, galactose) extract, alpha pol assay conditions, ACVTP 23 µM, 0% means relative activity ≥1.0, read-out: % Inhibition by Drug ACVTP): 0% | low salt DNA pol activity, sensitivity to drug (result in words) (yeast alpha DNA pol): not sensitive

C[C@@]1(CO)[C@H](O)CC[C@@]2(C)[C@H]1CC[C@H]1C[C@@H]3C[C@@]12CC[C@]3(O)CO [Aphidicolin, aphidicolin]
inhibition at 5.3 µM (HSV-1 DNA pol [1]; read-out: % Inhibition by Drug Aphidicolin, HSV-infected HeLa cells extract, aphidicolin 5.3 µM): 90% | high salt activity in the Y-MH202 yeast cell extracts (result in words) (HSV-1 DNA pol [2]): inhibited | inhibition at 5.3 µM (HSV-1 DNA pol [2]; read-out: % Inhibition by Drug Aphidicolin, Yeast Expressor (Y-MH202, galactose) extract, HSV pol assay conditions, aphidicolin 5.3 µM): 94% | low salt DNA pol activity, sensitivity to drug (result in words) (yeast alpha DNA pol): sensitive | inhibition at 5.3 µM (yeast alpha DNA pol; read-out: % Inhibition by Drug Aphidicolin, Yeast Control (Y-MH101, galactose) extract, alpha pol assay conditions): 88% | inhibition at 5.3 µM (yeast alpha DNA pol; read-out: % Inhibition by Drug Aphidicolin, Yeast Expressor (Y-MH202, galactose) extract, alpha pol assay conditions): 80%
